Measured values: patent US6048893A, “Substituted phenyl compounds with a substituent having A 1,3-benzodioxole ring” (Rhone-Poulenc Rorer Limited, priority 1995, dated 2000)
pIC50: −log10 of the molar value. Non-standard residues stand in square brackets, D forms with d. Residues, ends and D or L forms follow the SMILES beside them.

What was measured:
A10 cell ETA receptors = target: T1, A10 cell ETA receptors (Rattus norvegicus, UniProt P26684); experiment: Inhibition of [125I]-ET-1 binding to A10 cell ETA receptors; settings: [125I]-ET-1 20 pM, 2 hours at 37 C; read-out: concentration producing 50% inhibition of the binding of [125I]-ET-1 to A10 cell ETA receptors
T1 construct: endogenous in cells; host or cells: A10 cells (frozen cells, about 60,000 per well)
T1 sequence (P26684 21-426): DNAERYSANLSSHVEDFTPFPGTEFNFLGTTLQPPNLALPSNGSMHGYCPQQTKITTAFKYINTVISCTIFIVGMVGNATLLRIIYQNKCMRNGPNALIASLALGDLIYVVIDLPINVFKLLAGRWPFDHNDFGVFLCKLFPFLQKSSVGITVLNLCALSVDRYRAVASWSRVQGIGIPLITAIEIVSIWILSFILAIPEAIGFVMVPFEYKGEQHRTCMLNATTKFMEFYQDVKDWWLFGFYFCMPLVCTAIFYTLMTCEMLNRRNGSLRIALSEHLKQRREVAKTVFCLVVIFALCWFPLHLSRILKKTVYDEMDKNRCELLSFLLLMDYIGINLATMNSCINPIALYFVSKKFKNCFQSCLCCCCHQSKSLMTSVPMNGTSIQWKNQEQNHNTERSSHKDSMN
Method: A) Preparation of ETA Receptors:
A10 cells are grown to confluence in Dulbecco's modified essential medium containing 10% foetal calf serum. Two days after the final medium change cells are harvested by scraping from the base of the flask and centrifuged at 1500 rpm for 10 minutes at 4-- C in an bench centrifuge. The resulting pellets are washed in 50 mM Hepes buffer pH 7.3 containing calcium chloride (1 mM) and magnesium chloride (5 mM) and resuspended at a density of 140,000 cells/ml in the same. Cell suspensions are then frozen using a mixture of methanol and solid carbon dioxide and stored at -20-- C until required. For use in the assay cells are diluted to the required density with Hepes buffer pH 7.3.
(§1) Assays are performed using Millipore 96 well filtration plates with 0.22 μm filters in a final volume of […]. Mixtures consisting of test compound and [^125 I]-ET-1 (20 pM) in buffer pH 7.4 containing 0.1% bovine serum albumin are treated with either A10 cells or cerebellum protein. Total and non-specific binding are measured in the absence and presence of unlabeled ET-1 (100 nM). Approximately 60,000 A10 cells are used per well or 5 μg of cerebellum protein. Plates are incubated for 2 hours at 37-- C before the reaction is terminated by vacuum filtration. Plates are washed twice with assay buffer at 4-- C and the filters are punched out for gamma counting.

[1] = target: T2, rat cerebellum ETB receptors (Rattus norvegicus, UniProt P21451); experiment: Inhibition of [125I]-ET-1 binding to rat cerebellum ETB receptors; settings: [125I]-ET-1 20 pM, 2 hours at 37 C; read-out: concentration producing 50% inhibition of the binding of [125I]-ET-1 to rat cerebellum ETB receptors
T2 construct: from tissue; host or cells: rat cerebellum, particulate fraction (4000 g pellet)
T2 sequence (P21451 27-442): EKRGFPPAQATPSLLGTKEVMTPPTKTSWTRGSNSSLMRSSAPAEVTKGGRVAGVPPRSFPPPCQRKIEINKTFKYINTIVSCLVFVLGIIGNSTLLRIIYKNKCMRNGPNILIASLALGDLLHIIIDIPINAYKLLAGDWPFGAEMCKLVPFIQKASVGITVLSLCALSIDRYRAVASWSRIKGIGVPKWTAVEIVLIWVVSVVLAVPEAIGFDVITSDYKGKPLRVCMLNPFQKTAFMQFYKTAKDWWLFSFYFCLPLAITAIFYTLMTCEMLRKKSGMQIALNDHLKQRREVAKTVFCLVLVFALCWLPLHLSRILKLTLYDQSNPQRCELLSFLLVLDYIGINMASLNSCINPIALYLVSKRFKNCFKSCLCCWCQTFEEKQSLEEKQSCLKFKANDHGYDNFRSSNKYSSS
Method: B) Preparation of ETB Receptors:
Rats are killed by cervical dislocation and the cerebellum tissue is removed into ice cold Tris buffer pH 7.4 containing sucrose (0.25M), ethylenediaminetetracetic acid (3 mM), and a cocktail of protease inhibitors. After homogenizing using a glass/teflon manual homogenizer, the samples are centrifuged at 4-- C for 17 minutes at 1000 g, and the resulting supernatants are retained. This material is centrifuged at 4000 g for 35 minutes at 4-- C and the pellets are resuspended in 50 mM Tris buffer pH 7.4, and the protein concentration is measured. Aliquots of […] are frozen in a mixture of methanol and solid carbon dioxide and stored at -20-- C until required. For use in the assay samples are diluted to the required concentration with Tris buffer pH 7.4 containing 0.1% bovine serum albumin.
as §1, with “Plates are washed twice with assay buffer at 4-- C and the filters are punched out for gamma counting.” left out

hamster bleomycin model = settings: cited from earlier work

| pIC50 (A10 cell ETA receptors) | SMILES | pIC50 [1] | anti-fibrotic effect (hamster bleomycin model) |
| --- | --- | --- | --- |
| 8.22 | Cc1ccccc1[C@H](Oc1cc(OCc2ccc3c(c2)OCO3)ccc1C#N)C(=O)O | 4.46 | – |
| – | CC(C)C[C@@H]1NC(=O)[C@@H](C(C)C)NC(=O)[C@@H]2CCCN2C(=O)[C@@H](CC(=O)O)NC(=O)[C@@H](Cc2c[nH]c3ccccc23)NC1=O [BQ123] (cyclo(L[dW][dD]P[dV])) | – | anti-fibrotic effects |
